Experimental data taken from patent publication US10022315B2, “Oral composition for reinforcing skin tolerance following topical administration of a retinoid compound” (NUTRICOS TECHNOLOGIES, priority 2012, dated 2018).

Assays:
Format in all cases: in vivo, human
[1] = tested on: menopausal women; assay: Clinical study: evaluation by the patients of skin signs associated with the side effects of retinoic acid (none/mild/moderate/severe, on the face)
Description: (§1) The beneficial effect, in terms of reinforcing skin tolerance, of the food supplement of example 1 was assessed in a clinical study carried out according to the protocol which follows:
(§2) The study performed under dermatological control (30 dermatologists) was carried out in menopausal women (n=203), from 50 to 66 years old and showing moderate signs of photo-aging on the face.
(§3) These women were divided up into two treatment groups: • group 1 treated with 0.05% by weight retinoic acid, relative to the total weight of the composition, for 6 months at a rate of one application per day (control group), • group 2 treated with 0.05% by weight retinoic acid, relative to the total weight of the composition, for 6 months at a rate of one application per day, combined with daily intake of the food supplement as described in example 1. 3.1 Evaluation of Symptoms
(§4) The symptoms associated with skin tolerance were evaluated after 60, 120 and 180 days by, on the one hand, dermatologists and, on the other hand, by the subjects themselves.
During the last 2 months, have you experienced on the face

[2] = tested on: menopausal women; assay: Clinical study: evaluation by dermatologists of skin signs associated with the side effects of retinoic acid (score 0-9, on the face); conditions: scale 0-9, face
Description: as §1, §2, §3, §4
Dermatologist Scoring Scale

[3] = tested on: menopausal women; assay: Clinical study: overall evaluation of skin tolerance to the treatments by the dermatologists (questionnaire)
Description: as §1, §2, §3
(§5) Skin tolerance to the treatments was checked after 60, 120 and 180 days by means of questionnaires given to the dermatologists and the subjects participating in the study.
(§6) Tables 1 (evaluations by the dermatologists) and 2 (self-evaluation by the subjects) summarize the skin tolerance results obtained in groups 1 and 2. The results are expressed as of subjects, in reply to the following question: “do you consider thus far that the tolerance to the treatment is”. The possible replies were excellent, good, average and poor.

[4] = tested on: menopausal women; assay: Clinical study: overall evaluation of skin tolerance to the treatments by the subjects (questionnaire)
Description: as §1, §2, §3, §5, §6

SMILES: CC1=C(/C=C/C(C)=C/C=C/C(C)=C/C(=O)O)C(C)(C)CCC1 [GROUP 1, retinoic acid]
- Desquamation, patients replying mild (Mi) ([1]; D60): 41%
- Desquamation, patients replying moderate (Mo) ([1]; D60): 21%
- Desquamation, patients replying severe (S) ([1]; D60): 1%
- Redness, patients replying mild (Mi) ([1]; D60): 46%
- Redness, patients replying moderate (Mo) ([1]; D60): 13%
- Redness, patients replying severe (S) ([1]; D60): 0%
- Signs of discomfort, patients replying mild (Mi) ([1]; D60): 42%
- Signs of discomfort, patients replying moderate (Mo) ([1]; D60): 15%
- Signs of discomfort, patients replying severe (S) ([1]; D60): 0%
- Tautness, patients replying mild (Mi) ([1]; D60): 49%
- Tautness, patients replying moderate (Mo) ([1]; D60): 10%
- Tautness, patients replying severe (S) ([1]; D60): 1%
- Desquamation, patients replying mild (Mi) ([1]; D120): 42%
- Desquamation, patients replying moderate (Mo) ([1]; D120): 14%
- Desquamation, patients replying severe (S) ([1]; D120): 0%
- Itching, patients replying mild (Mi) ([1]; D120): 42%
- Itching, patients replying moderate (Mo) ([1]; D120): 7%
- Itching, patients replying severe (S) ([1]; D120): 0%
- Redness, patients replying mild (Mi) ([1]; D120): 49%
- Redness, patients replying moderate (Mo) ([1]; D120): 7%
- Redness, patients replying severe (S) ([1]; D120): 1%
- Signs of discomfort, patients replying mild (Mi) ([1]; D120): 35%
- Signs of discomfort, patients replying moderate (Mo) ([1]; D120): 13%
- Signs of discomfort, patients replying severe (S) ([1]; D120): 0%
- Tautness, patients replying mild (Mi) ([1]; D120): 43%
- Tautness, patients replying moderate (Mo) ([1]; D120): 8%
- Tautness, patients replying severe (S) ([1]; D120): 0%
- Desquamation, patients replying mild (Mi) ([1]; D180): 35%
- Desquamation, patients replying moderate (Mo) ([1]; D180): 8%
- Desquamation, patients replying severe (S) ([1]; D180): 0%
- Itching, patients replying mild (Mi) ([1]; D180): 35%
- Itching, patients replying moderate (Mo) ([1]; D180): 4%
- Itching, patients replying severe (S) ([1]; D180): 0%
- Redness, patients replying mild (Mi) ([1]; D180): 35%
- Redness, patients replying moderate (Mo) ([1]; D180): 6%
- Redness, patients replying severe (S) ([1]; D180): 0%
- Signs of discomfort, patients replying mild (Mi) ([1]; D180): 31%
- Signs of discomfort, patients replying moderate (Mo) ([1]; D180): 7%
- Signs of discomfort, patients replying severe (S) ([1]; D180): 0%
- Tautness, patients replying mild (Mi) ([1]; D180): 35%
- Tautness, patients replying moderate (Mo) ([1]; D180): 7%
- Tautness, patients replying severe (S) ([1]; D180): 1%
- Itching, patients replying mild (Mi) ([1]; J60 (D60)): 48%
- Itching, patients replying moderate (Mo) ([1]; J60 (D60)): 15%
- Itching, patients replying severe (S) ([1]; J60 (D60)): 0%
- Pruritus, mean score (dermatologists) ([2]; D0): 0.6
- Sign of desquamation, mean score (dermatologists) ([2]; D0): 1.6
- Sign of redness, mean score (dermatologists) ([2]; D0): 1.2
- Sign of skin dryness, mean score (dermatologists) ([2]; D0): 3.2
- Pruritus, mean score (dermatologists) ([2]; D60): 1.2
- Sign of desquamation, mean score (dermatologists) ([2]; D60): 1.8
- Sign of redness, mean score (dermatologists) ([2]; D60): 1.6
- Sign of skin dryness, mean score (dermatologists) ([2]; D60): 2.7
- Pruritus, mean score (dermatologists) ([2]; D120): 0.9
- Sign of desquamation, mean score (dermatologists) ([2]; D120): 1.5
- Sign of redness, mean score (dermatologists) ([2]; D120): 1.3
- Sign of skin dryness, mean score (dermatologists) ([2]; D120): 2.2
- Pruritus, mean score (dermatologists) ([2]; D180): 0.6
- Sign of desquamation, mean score (dermatologists) ([2]; D180): 1.1
- Sign of redness, mean score (dermatologists) ([2]; D180): 1.0
- Sign of skin dryness, mean score (dermatologists) ([2]; D180): 1.7
- Tolerance to the treatment judged Average by the dermatologists, subjects ([3]; D60): 24%
- Tolerance to the treatment judged Excellent by the dermatologists, subjects ([3]; D60): 15%
- Tolerance to the treatment judged Good by the dermatologists, subjects ([3]; D60): 62%
- Tolerance to the treatment judged Poor by the dermatologists, subjects ([3]; D60): 0%
- Tolerance to the treatment judged Average by the dermatologists, subjects ([3]; D120): 23%
- Tolerance to the treatment judged Excellent by the dermatologists, subjects ([3]; D120): 20%
- Tolerance to the treatment judged Good by the dermatologists, subjects ([3]; D120): 58%
- Tolerance to the treatment judged Poor by the dermatologists, subjects ([3]; D120): 0%
- Tolerance to the treatment judged Average by the dermatologists, subjects ([3]; D180): 15%
- Tolerance to the treatment judged Excellent by the dermatologists, subjects ([3]; D180): 23%
- Tolerance to the treatment judged Good by the dermatologists, subjects ([3]; D180): 63%
- Tolerance to the treatment judged Poor by the dermatologists, subjects ([3]; D180): 0%
- Tolerance to the treatment judged Average by the subjects, subjects ([4]; D60): 20%
- Tolerance to the treatment judged Excellent by the subjects, subjects ([4]; D60): 18%
- Tolerance to the treatment judged Good by the subjects, subjects ([4]; D60): 63%
- Tolerance to the treatment judged Poor by the subjects, subjects ([4]; D60): 0%
- Tolerance to the treatment judged Average by the subjects, subjects ([4]; D120): 21%
- Tolerance to the treatment judged Excellent by the subjects, subjects ([4]; D120): 25%
- Tolerance to the treatment judged Good by the subjects, subjects ([4]; D120): 54%
- Tolerance to the treatment judged Poor by the subjects, subjects ([4]; D120): 1%
- Tolerance to the treatment judged Average by the subjects, subjects ([4]; D180): 15%
- Tolerance to the treatment judged Excellent by the subjects, subjects ([4]; D180): 30%
- Tolerance to the treatment judged Good by the subjects, subjects ([4]; D180): 53%
- Tolerance to the treatment judged Poor by the subjects, subjects ([4]; D180): 2%
